Source: patent US20170042888A1, “GLYT1 INHIBITORS FOR USE IN THE TREATMENT OF HEMATOLOGICAL DISORDERS” (Hoffmann-La Roche Inc., priority 2014, published 2017)

Experiments:
[1] = system: soluble transferrin receptor (sTfrR); test: 36-week oral study in cynomolgus monkeys, sTfR in peripheral blood (SISCAPA assay with mass spectrometry); assay type: in vivo, cynomolgus monkey; details: cynomolgus monkeys, 1, 3 and 9 mg/kg/day by capsule via oral gavage for 36 weeks (FIG. 5)
Method: FIG. 5 Effect of 4-(3-fluoro-5-trifluoromethyl-pyridin-2-yl)-piperazin-1-yl]-[5-methanesulfonyl-2-((S)-2,2,2-trifluoro-1-methyl-ethoxy)-phenyl]-methanone on sTrfR in female cynomolgus monkeys
4-(3-fluoro-5-trifluoromethyl-pyridin-2-yl)-piperazin-1-yl]-[5-methanesulfonyl-2-((S)-2,2,2-trifluoro-1-methyl-ethoxy)-phenyl]-methanone was administered by capsule via oral gavage to 4 male and 4 female cynomolgus monkeys per group at dose levels of control vehicle, 1, 3 and 9 mg/kg/day for 36 weeks. An additional 2 animals per sex from the control and high-dose group were maintained for an additional 13-week recovery period for assessment of reversibility of any findings. Measurement of sTfR was performed on various occasions during the study in peripheral blood samples. Measurements were done using a SISCAPA Assay Technologies Inc. developed assay, designed to identify the soluble fragment of the human transferrin receptor (sTfR) in serum, plasma and blood using the SISCAPA® workflow in combination with mass spectrometry. The human assay was adapted and validated for cynomolgus sTf measurements. Data shown represent group mean values, error bars indicate the standard deviation.

female Wistar rats [2] = test: 8-week dietary admix study in female Wistar rats, hematological parameters in peripheral blood (SYSMEX XT analyser); assay type: in vivo, rat
Method: FIG. 1 Effect of 4-(3-fluoro-5-trifluoromethyl-pyridin-2-yl)-piperazin-1-yl]-[5-methanesulfonyl-2-((S)-2,2,2-trifluoro-1-methyl-ethoxy)-phenyl]-methanone on mean group hemoglobin in female rats (8-week study)
4-(3-Fluoro-5-trifluoromethyl-pyridin-2-yl)-piperazin-1-yl]-[5-methanesulfonyl-2-((S)-2,2,2-trifluoro-1-methyl-ethoxy)-phenyl]-methanone was administered daily for 8-weeks by dietary admix to female Wistar rats to achieve doses of 1, 3, and 8 mg/kg/day, followed by a 4-week recovery period off treatment. The control group received standard diet only during the whole study period. At various time points during the study hematological parameters including Hb were investigated in peripheral blood using a SYSMEX XT analyser. Data represent group mean values and error bars indicate standard deviation (SD).
FIG. 3 Effect of 4-(3-fluoro-5-trifluoromethyl-pyridin-2-yl)-piperazin-1-yl]-[5-methanesulfonyl-2-((S)-2,2,2-trifluoro-1-methyl-ethoxy)-phenyl]-methanone on mean group MCH in female rats (8-week study)
4-(3-fluoro-5-trifluoromethyl-pyridin-2-yl)-piperazin-1-yl]-[5-methanesulfonyl-2-((S)-2,2,2-trifluoro-1-methyl-ethoxy)-phenyl]-methanone was administered daily for 8-weeks by dietary admix to female Wistar rats to achieve doses of 1, 3, and 8 mg/kg/day followed by a 4-week recovery period off treatment. The control group received standard diet during the whole study period. At various time points during the study hematological parameters including MCH were investigated in peripheral blood using a SYSMEX XT analyser. Data represent group mean values and error bars indicate the standard deviation (SD).

female Wistar rats [3] = test: 26-week oral gavage study in female Wistar rats, hematological parameters in peripheral blood (Bayer ADVIA 120); assay type: in vivo, rat
Method: FIG. 2 Effect of [5-Methanesulfonyl-2-((S)-2,2,2-trifluoro-1-methyl-ethoxy) phenyl]-(3-trifluoromethyl-5,7-dihydro-pyrrolo[3,4-b]pyridin-6-yl)-methanone on mean group hemoglobin in female rats (26-week study)
(§1) [5-Methanesulfonyl-2-((S)-2,2,2-trifluoro-1-methyl-ethoxy)phenyl]-(3-trifluoromethyl-5,7-dihydro-pyrrolo[3,4-b]pyridin-6-yl)-methanone was administered daily for 26-weeks by oral gavage to 20 females Wistar rats per group at doses of 2, 6 and 12 mg/kg/day, followed by a 4-week recovery period off treatment for which 6 additional females where allocated per dose group. The control group was treated with a vehicle control during the dosing period. At various time points during the study hematological parameters including Hb were investigated in peripheral blood using the Bayer, ADVIA 120 hematology analyser. Data represent group mean values and error bars indicate the standard deviation (SD).
FIG. 4 Effect of [5-Methanesulfonyl-2-((S)-2,2,2-trifluoro-1-methyl-ethoxy)phenyl](3-trifluoromethyl-5,7-dihydro-pyrrolo[3,4-b]pyridin-6-yl)-methanone on mean group MCH in female rats (26-week study)
as §1, with “[5-Methanesulfonyl-2-((S)-2,2,2-trifluoro-1-methyl-ethoxy)phenyl](3-trifluoromethyl-5,7-dihydro-pyrrolo[3,4-b]pyridin-6-yl)-methanone” for “[5-Methanesulfonyl-2-((S)-2,2,2-trifluoro-1-methyl-ethoxy)phenyl]-(3-trifluoromethyl-5,7-dihydro-pyrrolo[3,4-b]pyridin-6-yl)-methanone”, “haematology” for “hematology”

## C[C@H](Oc1ccc(S(C)(=O)=O)cc1C(=O)N1CCN(c2ncc(C(F)(F)F)cc2F)CC1)C(F)(F)F [[4-(3-fluoro-5-trifluoromethyl-pyridin-2-yl)-piperazin-1-yl]-[5-methanesulfonyl-2-((S)-2,2,2-trifluoro-1-methyl-ethoxy)-phenyl]-methanone]
[1]
  soluble transferrin receptor (sTfrR) in peripheral blood: dose-dependent decrease
Female Wistar rats [2]; female Wistar rats, 1, 3 and 8 mg/kg/day by dietary admix for 8 weeks
  overall maximal decrease in total hemoglobin concentration: ≤ 20%
Female Wistar rats [2]; female Wistar rats, 1, 3 and 8 mg/kg/day by dietary admix for 8 weeks, all dose levels
  induced erythropoiesis type: microcytic, hypochromic erythropoiesis
Female Wistar rats [2]; female Wistar rats, 1, 3 and 8 mg/kg/day by dietary admix for 8 weeks, all dose levels (FIG. 1)
  total hemoglobin concentration: reduction
Female Wistar rats [2]; female Wistar rats, 1, 3 and 8 mg/kg/day by dietary admix for 8 weeks, all dose levels (FIG. 3)
  intracellular hemoglobin, MCH: reduction
Female Wistar rats [2]; female Wistar rats, 4-week recovery period off treatment after 8 weeks
  reversibility of the hemoglobin effect: reversible

## C[C@H](Oc1ccc(S(C)(=O)=O)cc1C(=O)N1Cc2cc(C(F)(F)F)cnc2C1)C(F)(F)F [[5-methanesulfonyl-2-((S)-2,2,2-trifluoro-1-methyl-ethoxy)-phenyl]-(3-trifluoromethyl-5,7-dihydro-pyrrolo[3,4-b]pyridin-6-yl)-methanone]
Female Wistar rats [3]; female Wistar rats, 2, 6 and 12 mg/kg/day by oral gavage for 26 weeks
  overall maximal decrease in total hemoglobin concentration: ≤ 20%
Female Wistar rats [3]; female Wistar rats, 2, 6 and 12 mg/kg/day by oral gavage for 26 weeks, all dose levels
  induced erythropoiesis type: microcytic, hypochromic erythropoiesis
Female Wistar rats [3]; female Wistar rats, 2, 6 and 12 mg/kg/day by oral gavage for 26 weeks, all dose levels (FIG. 2)
  total hemoglobin concentration: reduction
Female Wistar rats [3]; female Wistar rats, 2, 6 and 12 mg/kg/day by oral gavage for 26 weeks, all dose levels (FIG. 4)
  intracellular hemoglobin, MCH: reduction
Female Wistar rats [3]; female Wistar rats, 4-week recovery period off treatment after 26 weeks
  reversibility of the hemoglobin effect: reversible
